# Columns and labels:
# [1] = test system: alkaline phosphatase; assay: Quantum yield determination of dioxetane chemiluminescence after alkaline phosphatase addition; assay type: biochemical; conditions: 0.1M DEA, pH, 25° C., dioxetane concentration 3.7 × 10^−7M to 6 × 10^−6M
# Source text: Various dioxetanes within the scope of this invention have been prepared and tested for essential properties, such as quantum yield (performed by an independent laboratory according to the procedure listed below), T½ and the emission wavelength maxima. These dioxetanes are identified by number, and in the tables following after the number, the identity of the substituent on the adamantyl ring, if any followed by the identity of the Z substituent is given. In the compounds tested, X is phosphate. Values for quantum yield and T½ are obtained both for the dioxetane along in 0.1 molar DEA, and in the presence of an enhancement agent, Sapphire II.
# […] […] […] The tube was then placed in MGM Optocomp® I luminometer and the light signal was measured at 1 sec integration times. […] The total counts for the dioxetane were determined from the intensity data. Total counts observed for a given concentration of dioxetane is the product of Photon Detection Efficiency (PDE) of the luminometer, the quantum yield of dioxetane and the number of molecules capable of emitting light (concentration of dephosphorylated dioxetanes). PDE for the MGM Optocomp® I luminometer was determined to be 2.56×10^−3, measured with a Biolink® absolute standard and utilizing the known spectral response of the luminometer's PMT and the known emission spectrum of the dioxetanes. The quantum yield is calculated by dividing the total counts measured by the PDE and the concentration of the dioxetane.
# [2] = test system: alkaline phosphatase; assay: Chemiluminescence emission wavelength maximum (Spex Fluorolog); assay type: biochemical; conditions: for μL em: 0.1M DEA, pH, 25° C., dioxetane concentration 3.7 × 10^−7M to 6 × 10^−6M; for Emission Max, nm, +BDMQ: in the presence of BDMQ; for Emission Max, nm, No Addition: no enhancement agent; for Emission Max, nm, On Nylon: on a nylon membrane
# Procedure: […] The solution was equilibrated 5 minutes in a Spex Fluorolog Fluorimeter and then scanned 5 times at 0.5 sec/nm for chemiluminescent emission. The chemiluminescence emission wavelength maximum was recorded.
SMILES,Quantum Yield [1],Quantum Yield ([1]; second table),μL em [2],μL em ([2]; second table),"Emission Max, nm, +BDMQ [2] [nm]","Emission Max, nm, No Addition [2] [nm]","Emission Max, nm, On Nylon [2] [nm]"
"COC1(c2cccc(OP(=O)(O)O)c2)OOC12C1CC3CC(C1)CC2C3 (stereo not drawn) [AMPPD, 3-(2′-spiroadamantane)4-methoxy-4-(3″-phosphoryloxy)phenyl-1,2-dioxetane, reference compound]",1.5 × 10^−5,1.5 × 10^−5,477,477,,,
"COC1(c2cccc(OP(=O)(O)O)c2)OOC12C1CC3CC2CC(Cl)(C3)C1 (stereo not drawn) [CSPD, reference compound]",5.2 × 10^−5,5.2 × 10^−5,475,475,,,
"COC1(c2cc(Cl)cc(OP(=O)([O-])[O][NaH2-2])c2)OOC12C1CC3CC(C1)CC2C3.[Na+] (stereo not drawn) [Dioxetane 128-70, Disodium 3-chloro-5-(methoxyspiro(1,2-dioxetane-3,2′-tricylo[3.3.1.1^3,7]-decan]-4-yl)-1-phenyl Phosphate]",1.4 × 10^−4,1.4 × 10^−4,471,471,463,471,461
"COC1(c2cc(Cl)cc(OP(=O)([O-])[O][NaH2-2])c2)OOC12C1CC3CC2CC(Cl)(C3)C1.[Na+] (stereo not drawn) [Dioxetane 128-87, Disodium 3-chloro-5-(methoxyspiro(1,2-dioxetane-3,2′-(5-chloro-)tricyclo-[3.3.1.1^3,7]-decan]-4-yl)-1-phenyl Phosphate]",1.2 × 10^−4,1.2 × 10^−4,470,470,464,470,459
"COc1cc(OP(=O)([O-])[O][NaH2-2])cc(C2(OC)OOC23C2CC4CC3CC(Cl)(C4)C2)c1.[Na+] (stereo not drawn) [Dioxetane 140-17, Disodium 5-methoxy-3-(methoxyspiro(1,2-dioxetane-3,2′-(5-chloro-)tricyclo-[3.3.1.1^3,7]-decan]-4-yl)-1-phenyl Phosphate]",2.3 × 10^−5,2.3 × 10^−5,475,475,464,475,463
"COc1cc(OP(=O)([O-])[O][NaH2-2])cc(C2(OC)OOC23C2CC4CC(C2)CC3C4)c1.[Na+] (stereo not drawn) [Dioxetane 140-20, Disodium 5-methoxy-3-(methoxyspiro(1,2-dioxetane-3,2′-tricyclo[3.3.1.1^3,7]-decan]-4-yl)-1-phenyl Phosphate]",1.5 × 10^−5,1.5 × 10^−5,476,476,466,476,461

# — US6346615B1, “Chemiluminescent 1,2-dioxetanes” (Tropix, Inc., priority 1989, dated 2002)
